Experimental data: patent publication US8513187B2, “Soft protease inhibitors, and pro-soft forms thereof” (priority 2009, dated 2013)

Experiments:
[1] = target: T1, DPP9 (Homo sapiens, UniProt Q86TI2); assay: In vitro DPP9 inhibition assay (IC50, GP-AMC substrate); format: biochemical; settings: DPP IV versus DPP9
Procedure: (§1) FIG. 6 depicts a table outlining various in vitro and in vivo assay results for DPP inhibitors. CLogP values were calculated using ChemDraw Ultra version 11.0. […] All except PREP used the same substrate (GP-AMC), but different concentrations (10 μM for DPP IV, 25 μM for DPP8 and DPP9, and 50 μM for FAP).
(§2) The methods of biological testing used are described in International Patent Application PCT/US06/047853, published as WO/2007/100374, which claims priority to U.S. Provisional Patent Application No. 60/752,017. These methods are herein incorporated in their entirety by reference.
(§3) FIGS. 6-9 depict the results from various biological assays. The CLogP values in these figures were calculated using ChemDraw Ultra version 11.0.

[2] = target: DPP IV (Homo sapiens, UniProt P27487); assay: In vitro DPP IV inhibition assay (IC50, GP-AMC substrate); format: biochemical; settings: potency ratio versus oxy-analog compound 11
Procedure: as §1, §2, §3

[3] = target: T2, FAP (Homo sapiens, UniProt Q12884); assay: In vitro FAP inhibition assay (GP-AMC substrate); format: biochemical
T2 sequence (Q12884 1-760): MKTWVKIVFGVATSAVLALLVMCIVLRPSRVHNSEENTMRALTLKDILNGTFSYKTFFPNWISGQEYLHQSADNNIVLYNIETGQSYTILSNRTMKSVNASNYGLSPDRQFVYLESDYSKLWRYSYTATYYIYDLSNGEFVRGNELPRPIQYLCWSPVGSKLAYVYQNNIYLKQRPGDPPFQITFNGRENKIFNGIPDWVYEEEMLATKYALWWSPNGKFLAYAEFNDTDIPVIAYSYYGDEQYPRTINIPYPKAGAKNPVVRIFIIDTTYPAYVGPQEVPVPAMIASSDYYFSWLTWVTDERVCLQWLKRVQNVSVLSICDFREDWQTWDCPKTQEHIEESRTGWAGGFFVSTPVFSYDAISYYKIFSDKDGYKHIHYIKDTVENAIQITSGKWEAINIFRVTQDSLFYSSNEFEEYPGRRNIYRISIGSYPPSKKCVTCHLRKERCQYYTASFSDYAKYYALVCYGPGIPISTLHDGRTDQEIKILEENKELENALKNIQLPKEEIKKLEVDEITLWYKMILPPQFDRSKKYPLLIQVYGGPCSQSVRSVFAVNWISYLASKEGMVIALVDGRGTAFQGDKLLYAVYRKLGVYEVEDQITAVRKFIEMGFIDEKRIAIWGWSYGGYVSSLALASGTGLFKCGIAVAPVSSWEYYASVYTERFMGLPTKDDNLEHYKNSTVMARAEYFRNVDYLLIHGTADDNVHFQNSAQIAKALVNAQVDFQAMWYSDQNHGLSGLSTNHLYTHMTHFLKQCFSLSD
Procedure: (§4) FIG. 6 depicts a table outlining various in vitro and in vivo assay results for DPP inhibitors. CLogP values were calculated using ChemDraw Ultra version 11.0. […] The methods of biological testing used are described in International Patent Application PCT/US06/047853, published as WO/2007/100374, which claims priority to U.S. […] These methods are herein incorporated in their entirety by reference. FIGS. 6-9 depict the results from various biological assays. The CLogP values in these figures were calculated using ChemDraw Ultra version 11.0.

[4] = target: T1, DPP9; assay: Intracellular IC50 (IC-IC50), intracellular potency against DPP9; format: cell-based; settings: compounds preincubated at pH 2.0 for 4 h
Excerpt: It is important to note that IC-IC50 is not a measure of cell permeability. Like IC50, it is a composite of factors, including cell permeability, potency against DPP9, rate and equilibrium of the intramolecular cyclization reaction, and inhibitor stability, both intrinsic and intracellular.

[5] = target: T3, PREP (Homo sapiens, UniProt P48147); assay: In vitro PREP inhibition assay; format: biochemical
T3 sequence (P48147 1-710): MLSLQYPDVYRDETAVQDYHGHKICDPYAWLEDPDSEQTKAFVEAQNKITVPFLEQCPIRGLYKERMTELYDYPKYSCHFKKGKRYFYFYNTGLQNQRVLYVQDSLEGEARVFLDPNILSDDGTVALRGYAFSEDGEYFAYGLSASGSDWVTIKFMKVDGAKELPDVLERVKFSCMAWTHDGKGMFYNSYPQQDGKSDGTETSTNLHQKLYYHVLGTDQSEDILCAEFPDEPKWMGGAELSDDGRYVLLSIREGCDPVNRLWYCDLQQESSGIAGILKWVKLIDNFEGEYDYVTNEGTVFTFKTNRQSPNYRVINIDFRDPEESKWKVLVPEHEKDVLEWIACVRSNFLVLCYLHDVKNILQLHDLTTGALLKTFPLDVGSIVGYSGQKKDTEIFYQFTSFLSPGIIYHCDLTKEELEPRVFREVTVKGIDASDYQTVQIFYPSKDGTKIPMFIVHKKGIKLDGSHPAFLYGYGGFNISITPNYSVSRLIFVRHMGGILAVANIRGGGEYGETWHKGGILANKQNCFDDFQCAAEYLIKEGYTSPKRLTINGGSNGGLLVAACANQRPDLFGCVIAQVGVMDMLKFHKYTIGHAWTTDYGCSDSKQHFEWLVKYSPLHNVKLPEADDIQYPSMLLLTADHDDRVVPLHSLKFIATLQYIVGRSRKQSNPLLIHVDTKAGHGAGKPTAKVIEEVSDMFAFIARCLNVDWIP
Procedure: as §4

[6] = test system: Sprague-Dawley (SD) rats; settings: rat, in vivo, 300 mg/kg
Procedure: In an experiment, 13 male SD rats were given 300 mg/kg of compound 5.

[7] = target: DPP8 (Homo sapiens, UniProt Q6V1X1); assay: In vitro DPP8 inhibition assay (IC50, GP-AMC substrate); format: biochemical; settings: DPP IV versus DPP8
Procedure: as §1, §2, §3

T1 sequence (Q86TI2 whole entry, species assumed): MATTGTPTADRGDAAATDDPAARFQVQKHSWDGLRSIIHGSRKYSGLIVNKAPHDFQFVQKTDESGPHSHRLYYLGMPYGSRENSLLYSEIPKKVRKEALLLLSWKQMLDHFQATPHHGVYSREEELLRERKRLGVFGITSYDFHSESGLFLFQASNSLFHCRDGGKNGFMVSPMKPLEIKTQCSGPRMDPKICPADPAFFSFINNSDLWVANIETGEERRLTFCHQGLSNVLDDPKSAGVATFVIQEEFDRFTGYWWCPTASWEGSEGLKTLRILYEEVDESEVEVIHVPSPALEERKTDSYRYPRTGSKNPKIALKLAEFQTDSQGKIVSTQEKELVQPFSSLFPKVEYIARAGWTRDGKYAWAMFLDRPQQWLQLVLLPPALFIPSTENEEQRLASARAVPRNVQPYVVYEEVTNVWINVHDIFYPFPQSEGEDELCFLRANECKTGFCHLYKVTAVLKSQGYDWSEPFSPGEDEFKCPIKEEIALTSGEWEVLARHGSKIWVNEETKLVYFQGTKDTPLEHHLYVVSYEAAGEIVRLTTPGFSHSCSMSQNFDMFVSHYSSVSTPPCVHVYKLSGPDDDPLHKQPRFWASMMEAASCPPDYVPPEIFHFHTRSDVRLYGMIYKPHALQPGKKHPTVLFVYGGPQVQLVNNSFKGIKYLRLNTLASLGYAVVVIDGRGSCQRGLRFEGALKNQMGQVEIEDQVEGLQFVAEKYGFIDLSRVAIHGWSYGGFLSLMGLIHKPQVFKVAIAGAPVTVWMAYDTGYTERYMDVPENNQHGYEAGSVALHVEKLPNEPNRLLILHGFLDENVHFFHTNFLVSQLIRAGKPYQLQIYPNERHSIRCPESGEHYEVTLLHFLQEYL
DPP8, sequence (Q6V1X1 whole entry, species assumed): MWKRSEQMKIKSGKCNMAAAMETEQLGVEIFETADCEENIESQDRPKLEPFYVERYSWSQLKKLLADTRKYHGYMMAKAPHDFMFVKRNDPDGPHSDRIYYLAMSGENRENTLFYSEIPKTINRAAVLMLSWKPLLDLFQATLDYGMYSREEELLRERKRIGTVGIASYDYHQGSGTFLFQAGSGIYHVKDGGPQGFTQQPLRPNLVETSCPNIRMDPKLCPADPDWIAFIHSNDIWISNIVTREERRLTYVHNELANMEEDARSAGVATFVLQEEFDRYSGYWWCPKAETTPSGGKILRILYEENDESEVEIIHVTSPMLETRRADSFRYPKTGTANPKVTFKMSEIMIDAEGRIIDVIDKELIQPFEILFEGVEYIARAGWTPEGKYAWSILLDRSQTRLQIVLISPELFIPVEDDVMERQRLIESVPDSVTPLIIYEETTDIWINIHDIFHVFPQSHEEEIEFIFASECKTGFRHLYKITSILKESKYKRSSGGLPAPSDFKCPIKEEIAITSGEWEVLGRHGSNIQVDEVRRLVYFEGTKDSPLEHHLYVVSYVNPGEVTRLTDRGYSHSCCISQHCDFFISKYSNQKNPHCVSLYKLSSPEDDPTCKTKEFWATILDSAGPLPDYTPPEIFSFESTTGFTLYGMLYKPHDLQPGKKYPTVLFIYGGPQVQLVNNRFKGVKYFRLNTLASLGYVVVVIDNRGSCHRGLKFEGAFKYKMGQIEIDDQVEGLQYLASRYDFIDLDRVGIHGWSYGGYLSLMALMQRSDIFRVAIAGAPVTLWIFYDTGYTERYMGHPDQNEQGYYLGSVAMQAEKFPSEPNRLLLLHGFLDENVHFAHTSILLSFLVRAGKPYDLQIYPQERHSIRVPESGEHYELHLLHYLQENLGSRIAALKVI
DPP IV, sequence (P27487 whole entry, species assumed): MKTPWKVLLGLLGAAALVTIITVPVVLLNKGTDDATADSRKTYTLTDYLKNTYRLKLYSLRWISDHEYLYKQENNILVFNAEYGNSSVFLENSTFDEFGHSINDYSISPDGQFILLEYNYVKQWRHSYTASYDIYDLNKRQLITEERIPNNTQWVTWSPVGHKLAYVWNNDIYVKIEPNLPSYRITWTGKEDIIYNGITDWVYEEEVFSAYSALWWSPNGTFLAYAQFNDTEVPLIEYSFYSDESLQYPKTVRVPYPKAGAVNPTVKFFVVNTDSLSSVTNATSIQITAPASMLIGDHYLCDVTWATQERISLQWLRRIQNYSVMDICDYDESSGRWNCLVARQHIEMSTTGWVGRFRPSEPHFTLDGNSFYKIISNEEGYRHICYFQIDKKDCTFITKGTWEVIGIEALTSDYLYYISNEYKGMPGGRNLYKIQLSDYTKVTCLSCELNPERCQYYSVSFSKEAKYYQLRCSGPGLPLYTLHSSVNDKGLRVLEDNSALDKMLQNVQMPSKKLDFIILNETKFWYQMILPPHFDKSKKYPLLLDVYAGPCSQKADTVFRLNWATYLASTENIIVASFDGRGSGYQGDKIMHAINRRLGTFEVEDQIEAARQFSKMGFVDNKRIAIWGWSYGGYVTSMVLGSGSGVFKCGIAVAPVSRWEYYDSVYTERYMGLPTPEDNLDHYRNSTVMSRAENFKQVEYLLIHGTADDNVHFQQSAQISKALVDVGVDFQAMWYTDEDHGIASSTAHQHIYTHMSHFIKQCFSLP

SMILES: CN(CB(O)O)C(=S)[C@@H](N)CCC(=O)O.Cl [Compound 5, Glu-boroSar[thioxo amide]hydrochloride]
- more potent for DPP IV than for DPP9 (selectivity) [1]: 6,000 ×
- more potent inhibitor of DPP IV than compound 11 [2]: about 66 fold
- selectivity against FAP in vitro [3]: good selectivity
- IC50 [4]: 828 µM
- selectivity against PREP in vitro [5]: good selectivity
- signs of toxicity after 24 h [6]: no sign of toxicity
- more potent for DPP IV than for DPP8 (selectivity) [7]: 13,000 ×
